Calls of active or inactive are those of the source. The calls are words filed in the database; no cut-off is given here.
Columns and labels:
[1] = test system: Acute myeloid leukemic cell; assay: Induction of ferroptosis in human Acute myeloid leukemic cells assessed as upregulation of TF mRNA level by RT-qPCR analysis; assay type: functional, cell-based
OCI-AML2 [2] = assay: Induction of ferroptosis in human OCI-AML2 cells assessed as increase in ROS generation at 5 uM incubated for 48 hrs in presence of ferrostatin-1 by DCFH-DA staining based flow cytometry analysis; assay type: functional, cell-based
MOLM-13 = assay: Antiproliferative activity against human MOLM-13 cells assessed as cell growth inhibition incubated for 2 days by CCK-8 assay; settings: MOLM-13, 48 h
[3] = Toxicity in female C57BL/6 mouse model assessed as change in body weight at 50 mg/kg, ip administered once daily; assay type: organism-based; settings: in vivo
U-937 [4] = assay: Induction of ferroptosis in human U-937 cells assessed as increase in lipid peroxidation at 10 uM in presence of Zinc protoporphyrin by flow cytometry analysis; assay type: functional, cell-based
OCI-AML2 [5] = assay: Induction of ferroptosis in human OCI-AML2 cells assessed as increase in lipid peroxidation accumulation at 5 uM incubated for 48 hrs in presence of ferrostatin-1 by C11-BODIPY 581/591 staining based flow cytometry analysis; assay type: functional, cell-based
U-937 [6] = assay: Upregulation of p62 […] level in human U-937 cells at 2.5 to 10 uM incubated for 48 hrs by Western blot analysis; assay type: functional, cell-based; settings: dose 2.5-10 µM
U-937 [7] = assay: Induction of ferroptosis in human U-937 cells assessed as increase in ferrous ion accumulation at 100 uM incubated for 48 hrs by RhoNox-1 staining based flow cytometry analysis; assay type: functional, cell-based
[8] = AUC (0 to infinity) in ICR(CD-1) mouse at 50 mg/kg, ip treated up to 24 hrs by LC-MS/MS analysis; assay type: ADME, organism-based; settings: in vivo
[9] = test system: Acute myeloid leukemic cell; assay: Induction of ferroptosis in human Acute myeloid leukemic cells assessed as upregulation of TFRC protein level at 2.5 to 10 uM by Western blot analysis; assay type: functional, cell-based; settings: dose 2.5-10 µM
U-937 [10] = assay: Antiproliferative activity in human U-937 cells assessed as suppression of cell growth at 10 uM in presence of Zinc protoporphyrin by trypan blue staining based analysis; assay type: functional
U-937 [11] = assay: Effect on WT1 gene expression in human U-937 cells at 10 uM incubated for 48 hrs by RT-qPCR; assay type: functional, cell-based
[12] = Clearance in ICR(CD-1) mouse at 5 mg/kg, iv treated up to 24 hrs by LC-MS/MS analysis; assay type: ADME, organism-based; settings: in vivo
U-937 [13] = assay: Antitumor activity against human U-937 cells assessed as cell growth inhibition incubated for 2 days by CCK-8 assay; settings: U-937, 48 h
[14] = test system: Acute myeloid leukemic cell; assay: Induction of ferroptosis in human Acute myeloid leukemic cells assessed as increase in ACSL4 level by Western blot analysis; assay type: functional, cell-based
OCI-AML2 [15] = assay: Induction of cell apoptosis in human OCI-AML2 cells incubated for 48 hrs by Annexin V/DAPI staining based flow cytometry analysis; assay type: functional; settings: dose 2.5-10 µM
U-937 [16] = assay: Effect on CCNB1 gene expression in human U-937 cells at 10 uM incubated for 48 hrs by RT-qPCR; assay type: functional, cell-based
U-937 [17] = assay: Induction of ferroptosis in human U-937 cells assessed as increase in ferrous ion accumulation at 5 uM incubated for 48 hrs by RhoNox-1 staining based flow cytometry analysis; assay type: functional, cell-based
[18] = Toxicity in female C57BL/6 mouse model assessed as change in body weight at 50 mg/kg, ip administered once daily in presence of cytarabine; assay type: organism-based; settings: in vivo

O=C(NO)c1cccc2[nH]c(C#Cc3cccc(C(F)(F)F)c3)cc12
Activity [1]: Active | Activity (OCI-AML2 [2]): inactive | IC50 (MOLM-13): ≤ 10 µM | Activity [3]: Non-toxic | Activity (U-937 [4]): Active | Activity (OCI-AML2 [5]): inactive | Activity (U-937 [6]): Active | Activity (U-937 [7]): Active | AUC(0-inf) [8]: 2000 ng·h/mL | Activity [9]: Active | Activity (U-937 [10]): inactive | Activity (U-937 [11]): Active | clearance [12]: 134 mL/min/kg | IC50 (U-937 [13]): 9.66 µM | Activity [14]: Active | Activity (OCI-AML2 [15]): Dose-dependent-effect | Activity (U-937 [16]): Active | Activity (U-937 [17]): Active | Activity [18]: Non-toxic
